{"source": "ChEMBL document CHEMBL1146082", "about": "“Development of a structural model for NF-kappaB inhibition of sesquiterpene lactones using self-organizing neural networks” (J Med Chem, 2006)", "target": "Transcription factor p65 (Homo sapiens) (UniProt Q04206)", "sequence (Q04206 whole entry)": "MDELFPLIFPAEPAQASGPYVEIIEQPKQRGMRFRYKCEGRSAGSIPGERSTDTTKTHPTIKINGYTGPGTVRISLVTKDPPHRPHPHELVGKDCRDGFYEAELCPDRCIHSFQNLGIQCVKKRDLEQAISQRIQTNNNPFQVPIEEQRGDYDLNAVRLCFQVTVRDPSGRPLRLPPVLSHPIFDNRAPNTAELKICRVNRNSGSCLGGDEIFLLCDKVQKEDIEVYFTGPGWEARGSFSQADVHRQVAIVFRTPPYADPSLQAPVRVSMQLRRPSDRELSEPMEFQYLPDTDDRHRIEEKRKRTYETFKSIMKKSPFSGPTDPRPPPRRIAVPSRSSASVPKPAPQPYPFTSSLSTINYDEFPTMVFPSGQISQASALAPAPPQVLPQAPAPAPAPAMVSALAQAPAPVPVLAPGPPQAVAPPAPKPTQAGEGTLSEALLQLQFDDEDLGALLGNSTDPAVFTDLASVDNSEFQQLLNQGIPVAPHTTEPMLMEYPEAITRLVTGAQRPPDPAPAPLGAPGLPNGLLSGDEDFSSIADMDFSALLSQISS", "assay": "Inhibition of NF-kappaB DNA binding by EMSA", "data": [{"smiles": "C=C1C(=O)O[C@H]2[C@H]1[C@H](OC(=O)[C@@]1(C)O[C@H]1C)[C@@H](OC(C)=O)/C(C(=O)OC)=C\\CC[C@@]1(C)O[C@H]21", "values": [{"measurement": "IC100", "value": 10, "unit": "µM"}]}, {"smiles": "C=C(C)C(=O)O[C@H]1/C(C=O)=C\\CC/C(COC(C)=O)=C/[C@H]2OC(=O)C(=C)[C@@H]2[C@@H]1O", "values": [{"measurement": "IC100", "value": 5, "unit": "µM"}]}, {"smiles": "C=C1C(=O)O[C@H]2[C@H]1[C@@H](OC(=O)/C(C)=C/C)C/C(C)=C/C(=O)/C=C(/C)[C@@H]2O", "values": [{"measurement": "IC100", "value": 10, "unit": "µM"}]}, {"smiles": "C=C1C(=O)O[C@H]2/C=C(\\C)CC/C=C(\\C)[C@@H](OC(=O)/C(C)=C/C)[C@H](O)[C@@H]12", "values": [{"measurement": "IC100", "value": 100, "unit": "µM"}]}, {"smiles": "CC[C@@H](C)[C@@]1(O)O[C@H]2C[C@@]3(C)OC(=CC3=O)/C(COC(C)=O)=C\\[C@H]3OC(=O)[C@@]1(C)C23", "note": "(stereo not given in full)", "values": [{"measurement": "IC100", "value": 5, "unit": "µM"}]}, {"smiles": "CC[C@@H](C)[C@@]1(O)O[C@H]2C[C@@]3(C)OC(=CC3=O)/C(CO)=C\\[C@H]3OC(=O)[C@@]1(C)C23", "note": "(stereo not given in full)", "values": [{"measurement": "IC100", "value": 100, "unit": "µM"}]}, {"smiles": "C=C1C(=O)O[C@@H]2C[C@@]3(C)CC(=O)C(OC(C)=O)=C(C)C3C[C@H]12", "note": "(stereo not given in full)", "values": [{"measurement": "IC100", "value": 100, "unit": "µM"}]}, {"smiles": "C=C1C(=O)O[C@@H]2C[C@H](C)[C@@H]3CC(=O)C(C)=C3C[C@H]12", "values": [{"measurement": "IC100", "value": 50, "unit": "µM"}]}, {"smiles": "C=C(C)C(=O)O[C@H]1[C@H]2C(=C)C(=O)O[C@@H]2[C@@H](O)[C@@]2(CC/C=C(/C=O)[C@@H]1OC(C)=O)CO2", "values": [{"measurement": "IC100", "value": 5, "unit": "µM"}]}, {"smiles": "C=C1C(=O)O[C@H]2CC(=C)[C@H](O)CC/C(C)=C/[C@@H](O)[C@H]12", "values": [{"measurement": "IC100", "value": 50, "unit": "µM"}]}, {"smiles": "C=C1C(=O)O[C@@H]2[C@H]3C(C)=CC[C@H]3[C@](C)(O)C[C@H](O)[C@@H]12", "values": [{"measurement": "IC100", "value": 100, "unit": "µM"}]}, {"smiles": "C=C1C(=O)O[C@@H]2C[C@@H](C)[C@@H]3C=CC(=O)[C@@]3(C)[C@@H](O)[C@H]12", "values": [{"measurement": "IC100", "value": 10, "unit": "µM"}]}, {"smiles": "C=C1C(=O)O[C@@H]2/C=C(/C)[C@]3(O)O[C@](C)(C[C@@H](OC(=O)/C(C)=C\\C)[C@@H]12)C[C@@H]3O", "values": [{"measurement": "IC100", "value": 50, "unit": "µM"}]}, {"smiles": "C=C1C(=O)O[C@@H]2/C=C(/C)C3=CC(=O)[C@@](C)(C[C@@H](OC(=O)/C(C)=C\\C)[C@@H]12)O3", "values": [{"measurement": "IC100", "value": 5, "unit": "µM"}]}, {"smiles": "C=C1C(=O)O[C@@H]2C[C@@H](C)[C@@H]3[C@H](OCC)CC(=O)[C@@]3(C)[C@H](OC(C)=O)[C@H]12", "values": [{"measurement": "IC100", "value": 50, "unit": "µM"}]}, {"smiles": "C=C(C)C(=O)O[C@H]1[C@H]2C(=C)C(=O)O[C@@H]2[C@@H](O)C(=C)CC/C=C(/C=O)[C@@H]1OC(C)=O", "values": [{"measurement": "IC100", "value": 10, "unit": "µM"}]}, {"smiles": "C=C(C)C(=O)O[C@@H]1C[C@@](C)(O)[C@@H]2C(=O)C=C(C)[C@@H]2[C@H]2OC(=O)C(=C)[C@@H]21", "values": [{"measurement": "IC100", "value": 20, "unit": "µM"}]}, {"smiles": "C=C1C(=O)O[C@@H]2[C@@H]3[C@@](C)(CC[C@@H]12)[C@@H](O)C[C@H]1O[C@@]31C", "values": [{"measurement": "IC100", "value": 200, "unit": "µM"}]}, {"smiles": "C=C1C(=O)O[C@H]2[C@H]1CCC(C)=C1C(=O)[C@H]3O[C@@]3(C)[C@@H]12", "values": [{"measurement": "IC100", "value": 5, "unit": "µM"}]}, {"smiles": "C=C(C)C(=O)O[C@H]1C[C@@]2(C)OC(=CC2=O)C(=C)[C@@H](O)[C@H]2OC(=O)C(=C)[C@@H]21", "values": [{"measurement": "IC100", "value": 10, "unit": "µM"}]}, {"smiles": "C=C(C)C(=O)O[C@H]1[C@@H]2[C@H](C)C(=O)O[C@@H]2C[C@@H](C)[C@@H]2C=CC(=O)[C@]21C", "values": [{"measurement": "IC100", "value": 100, "unit": "µM"}]}, {"smiles": "C=C(C)C(=O)O[C@H]1C[C@@]2(C)OC(=CC2=O)C(=C)[C@@H](Cl)[C@H]2OC(=O)C(=C)[C@@H]21", "values": [{"measurement": "IC100", "value": 5, "unit": "µM"}]}, {"smiles": "C=C(C)C(=O)O[C@@H]1[C@@H]2C(=C)C(=O)O[C@@H]2C[C@@H](C)[C@@H]2C=CC(=O)[C@@]12C", "values": [{"measurement": "IC100", "value": 5, "unit": "µM"}]}, {"smiles": "C=C(C)C(=O)O[C@H]1C/C(C)=C\\[C@@]2(OC)C=C(C)[C@H](O2)[C@H]2OC(=O)C(=C)[C@@H]21", "values": [{"measurement": "IC100", "value": 10, "unit": "µM"}]}, {"smiles": "C=C1C(=O)O[C@H]2C/C(CO)=C/CC/C(COC(=O)C(C)C(C)O)=C/C[C@H]12", "note": "(stereo not given in full)", "values": [{"measurement": "IC100", "value": 50, "unit": "µM"}]}, {"smiles": "C=C1[C@@H]2[C@H]3OC(=O)C(=C)[C@@H]3CC[C@](C)(O)[C@@H]2C[C@@H]1O", "values": [{"measurement": "IC100", "value": 200, "unit": "µM"}]}, {"smiles": "C=C1C[C@@H]2OC(=O)C(=C)[C@H]2[C@H](O)/C=C(\\C)CCC1=O", "values": [{"measurement": "IC100", "value": 50, "unit": "µM"}]}, {"smiles": "C=C1C(=O)O[C@H]2[C@H]1[C@H](OC(=O)/C(C)=C\\C)C[C@@]1(C)OC(=CC1=O)C(=C)[C@@H]2O", "values": [{"measurement": "IC100", "value": 10, "unit": "µM"}]}, {"smiles": "C=C1C(=O)O[C@H]2C3=C(C(=O)C[C@@H]3C)[C@@H](C)CC[C@@H]12", "values": [{"measurement": "IC100", "value": 20, "unit": "µM"}]}, {"smiles": "C=C1C(=O)O[C@H]2C/C(CO)=C/CC/C(COC(=O)C(C)(C)O)=C/C[C@H]12", "values": [{"measurement": "IC100", "value": 50, "unit": "µM"}]}, {"smiles": "C=C(C)C(=O)O[C@H]1C[C@@]2(C)OC(=CC2=O)/C(CO)=C\\[C@H]2OC(=O)C(=C)[C@H]12", "values": [{"measurement": "IC100", "value": 20, "unit": "µM"}]}, {"smiles": "C=C1C(=O)C[C@H]2C(=C)C(=O)O[C@@H]2/C=C(\\COC(=O)C(C)C)CC[C@@H]1OC", "values": [{"measurement": "IC100", "value": 25, "unit": "µM"}]}, {"smiles": "C=C1C(=O)O[C@@H]2C[C@@H](C)[C@@H]3C=CC(=O)[C@@]3(C)[C@H](OC(=O)C(C)CC)[C@H]12", "note": "(stereo not given in full)", "values": [{"measurement": "IC100", "value": 10, "unit": "µM"}]}, {"smiles": "C=C(C)C(=O)O[C@@H]1/C=C(/C=O)CCC[C@@]2(CO2)[C@H](O)[C@H]2OC(=O)C(=C)[C@@H]21", "values": [{"measurement": "IC100", "value": 5, "unit": "µM"}]}, {"smiles": "C=C1CCC=C(C)[C@@]2(O)[C@H](OC(=O)[C@]3(C)O[C@@H]3C)[C@@H]3[C@@H](OC(=O)[C@@H]3C)[C@H]12", "values": [{"measurement": "IC100", "value": 200, "unit": "µM"}]}, {"smiles": "C=C1C(=O)O[C@@H]2[C@H]3C(C)=C(Cl)C(=O)C3=C(C)CC[C@@H]12", "values": [{"measurement": "IC100", "value": 20, "unit": "µM"}]}, {"smiles": "C=C(CO)C(=O)OC/C1=C\\C[C@@H]2C(=C)C(=O)O[C@H]2C/C(CO)=C/CC1", "values": [{"measurement": "IC100", "value": 20, "unit": "µM"}]}, {"smiles": "C=C1C(=O)O[C@@H]2C[C@@]3(C)[C@H](OC(C)=O)CC[C@](O)(COC(=O)C(C)C)[C@@H]3C[C@H]12", "values": [{"measurement": "IC100", "value": 100, "unit": "µM"}]}, {"smiles": "C=C1C(=O)O[C@@H]2C[C@@]3(C)[C@H](O)CC[C@](O)(COC(=O)C(C)C)[C@@H]3C[C@H]12", "values": [{"measurement": "IC100", "value": 200, "unit": "µM"}]}, {"smiles": "C=C[C@]1(C)CC[C@H]2C(=C)C(=O)O[C@@H]2[C@H]1C(=C)C", "values": [{"measurement": "IC100", "value": 100, "unit": "µM"}]}]}
